Measured values taken from patent US20180015167A1, “CROSSLINKABLE TREHALOSE FOR THE COVALENT INCORPORATION IN HYDROGELS AND METHODS OF USE” (INVIVO THERAPEUTICS CORPORATION, priority 2013, published 2018).

Test: Solubility of hydrogel precursors in water / aqueous buffer
Assay type: physicochemical
Protocol: Hydrogels formed by mixing trehalose diacrylate and thiol-containing 4-arm PEG of molecular weight 5000 (4arm-PEG5k-SH). Briefly, trehalose diacrylate was dissolved in PBS (pH7.4, 1.06 mM potassium phosphate monobasic, 150 mM sodium chloride, 2.97 mM sodium phosphate dibasic) to prepare a trehalose-containing precursor solution at a concentration of 50 mg/ml. 9.42 mg 4arm-PEG5k-SH (0.0075 mmol thiols) was dissolved in 66.1 μl PBS and the solution was mixed with 33.9 μl trehalose diacrylate solution (1.7 mg, 1 molar equivalents based on thiols) and by vortexing.
Hydrogels formed by mixing ethoxylated-trimethylolpropan tri(thioglycolate) (TMPE-TGA), PEG diacrylate, and varying amounts of trehalose diacrylate. The following protocol has been used for gel formulation at the 150 μl scale. Briefly, TMPE-TGA was dissolved in PBS to prepare a 40 wt % thiol-containing precursor solution. Trehalose diacrylate was dissolved in PBS to prepare a trehalose-containing precursor solution at a concentration of 40 mg/ml. 10.875 mg PEG diacrylate of molecular weight 700 (PEGDA700, 0.75 molar equivalents based on thiols) was dissolved in 49.94 μl PBS and the solution was mixed with 58.3 μl trehalose diacrylate solution (2.33 mg, 0.25 molar equivalents based on thiols) and 41.8 μl TMPE-TGA solution (0.041 mmol thiols) by vortexing. […]

C=CC(=O)OC[C@H]1O[C@H](O[C@H]2O[C@H](COC(=O)C=C)[C@@H](O)[C@H](O)[C@H]2O)[C@H](O)[C@@H](O)[C@@H]1O [trehalose diacrylate]
solubility in aqueous buffer (PBS pH7.4, room temperature): soluble in aqueous buffer
water solubility (PBS, room temperature): water soluble
